Experimental data reported in publication PMC7604909, “Structure of a GH51 α-L-arabinofuranosidase from Meripilus giganteus: conserved substrate recognition from bacteria to fungi” (Acta Crystallographica. Section D, Structural Biology, 2020).
Structures can show the parent of a compound that is named as a salt.

Key:
MgGH51 [1] = target: T1, MgGH51 (Meripilus giganteus, UniProt Z9H0M4BQG1); test: hydrolysis kinetics, released L-arabinose quantified on CarboPac PA20; format: biochemical; details: 40 °C, 50 mM sodium acetate pH 4, 5 ng/ml enzyme, 0.02-2.5 mM substrate; kind of constant not told in main text
T1 construct: mature secreted enzyme, expressed in Aspergillus oryzae, N-glycosylated (Asn145, Asn245, Asn421, Asn487), untagged
T1 sequence (Z9H0M4BQG1 1-627): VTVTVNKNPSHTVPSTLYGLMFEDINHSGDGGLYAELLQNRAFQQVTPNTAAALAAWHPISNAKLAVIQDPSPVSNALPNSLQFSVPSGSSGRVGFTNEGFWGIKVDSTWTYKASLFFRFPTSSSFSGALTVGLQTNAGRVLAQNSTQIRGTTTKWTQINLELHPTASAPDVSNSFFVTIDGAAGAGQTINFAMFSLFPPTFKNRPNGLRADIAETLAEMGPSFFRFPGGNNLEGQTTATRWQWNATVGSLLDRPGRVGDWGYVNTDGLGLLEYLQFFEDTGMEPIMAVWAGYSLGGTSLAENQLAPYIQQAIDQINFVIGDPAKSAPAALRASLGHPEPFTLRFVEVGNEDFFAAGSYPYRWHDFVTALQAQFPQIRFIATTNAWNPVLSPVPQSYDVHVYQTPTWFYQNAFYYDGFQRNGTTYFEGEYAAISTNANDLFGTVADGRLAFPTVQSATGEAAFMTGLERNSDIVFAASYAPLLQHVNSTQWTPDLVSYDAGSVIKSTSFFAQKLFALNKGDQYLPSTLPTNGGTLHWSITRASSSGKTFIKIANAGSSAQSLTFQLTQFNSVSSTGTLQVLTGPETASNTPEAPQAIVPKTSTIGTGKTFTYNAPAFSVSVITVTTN

MgGH51 [2] = target: T1, MgGH51; test: X-ray crystal structure, […] Å; format: binding; details: type 1 crystal, about one equivalent of inhibitor, 1 h at room temperature; covalent, bound to nucleophile Glu429 (ring-opened aziridine)
MgGH51 [3] = target: T1, MgGH51; test: X-ray crystal structure, […] Å; format: binding; details: type 1 crystal, about one equivalent of inhibitor, 1 h at room temperature; covalent, bound to nucleophile Glu429 (ring-opened cyclic sulfate); PDB code from Tables 3 and 4, the supplementary list pri

| Structure (SMILES) | hydrolysis kinetics, released L-arabinose quantified on CarboPac PA20 (MgGH51 [1]) | further results |
| --- | --- | --- |
| OC[C@@H]1O[C@@H](OC[C@@H]2O[C@@H](OC[C@@H]3OC(O)[C@H](O)[C@H]3O)[C@H](O)[C@H]2O)[C@H](O)[C@H]1O (stereo partly drawn) [A3, α(1,5)-linked arabinotriose] | Measurement of the hydrolytic kinetics of MgGH51 towards the AX2 and A3 oligosaccharides | – |
| OC[C@@H]1O[C@@H](O[C@@H]2[C@@H](O)[C@H](O[C@@H]3COC(O)[C@H](O)[C@H]3O)OC[C@H]2O)[C@H](O)[C@H]1O (stereo partly drawn) [AX2, 3^2-α-L-Arabinofuranosyl-xylobiose] | Measurement of the hydrolytic kinetics of MgGH51 towards the AX2 and A3 oligosaccharides | – |
| OC[C@H]1[C@H](O)[C@@H](O)[C@@H]2N[C@H]12 [α-L-AraAZI, α-L-arabinocyclophellitol aziridine] | – | X-ray crystal structure, 1.54 Å (MgGH51 [2]): α-L-AraCS or α-L-AraAZI gave clear density for these two ligands bound to Glu429 |
| O=S1(=O)O[C@@H]2[C@@H](CO)[C@H](O)[C@@H](O)[C@@H]2O1 [α-L-AraCS, α-L-arabinocyclophellitol cyclic sulfate] | – | X-ray crystal structure, 1.71 Å (MgGH51 [3]): α-L-AraCS or α-L-AraAZI gave clear density for these two ligands bound to Glu429 |
